ChEMBL document CHEMBL1201862, “PubChem BioAssay data set” (2004)
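Protocol summary: plate cells (96-well), add compound at 5 concentrations, incubate 48 h, interpolate endpoints linearly. At the GI50, growth is halved.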 Active and inactive are the calls of the source. No stated cut-off is given here; in the data, active = GI50 up to about 1.1 µM and inactive = higher.

How the values were obtained:
Test in all cases: NCI anticancer screen, dose series, 48 h
KM12 = tested on: KM12
TK-10 = tested on: TK-10
NCI-H226 = tested on: NCI-H226
A498 = tested on: A498
SK-MEL-5 = tested on: SK-MEL-5
BT-549 = tested on: BT-549
HCT-116 = tested on: HCT-116
NCI/ADR-RES = tested on: NCI/ADR-RES
OVCAR-4 = tested on: OVCAR-4
LOX IMVI = tested on: LOX IMVI
A549 = tested on: A549
SNB-75 = tested on: SNB-75
MDA-MB-435 = tested on: MDA-MB-435
CAKI-1 = tested on: CAKI-1
IGROV-1 = tested on: IGROV-1
NCI-H522 = tested on: NCI-H522
SK-OV-3 = tested on: SK-OV-3
SW-620 = tested on: SW-620
NCI-H460 = tested on: NCI-H460

Measured: GI50

O=C(O)c1nnsc1-c1ccc(-c2snnc2C(=O)O)cc1
inactive: KM12 > 100 µM | TK-10 > 100 µM | NCI-H226 > 100 µM | A498 > 100 µM | SK-MEL-5 > 100 µM | BT-549 > 100 µM | HCT-116 > 100 µM | NCI/ADR-RES > 100 µM | OVCAR-4 29.6 µM | LOX IMVI 31.8 µM | A549 > 100 µM | SNB-75 > 100 µM | MDA-MB-435 48.2 µM | CAKI-1 58.7 µM | IGROV-1 > 100 µM | NCI-H522 56.6 µM | SK-OV-3 > 100 µM | SW-620 39.5 µM | NCI-H460 32.1 µM

COc1ccc(C(=O)/C=C2\C(=O)Nc3ccc(Br)cc32)cc1
inactive: KM12 3.21 µM | TK-10 1.68 µM | NCI-H226 11.1 µM | A498 17.9 µM | SK-MEL-5 18.4 µM | BT-549 5.75 µM | HCT-116 4.05 µM | NCI/ADR-RES 1.71 µM | OVCAR-4 16.5 µM | LOX IMVI 1.99 µM | A549 15.3 µM | SNB-75 14.3 µM | MDA-MB-435 6.75 µM | CAKI-1 8.63 µM | IGROV-1 2.84 µM | NCI-H522 4.03 µM | SK-OV-3 15.6 µM | SW-620 2.32 µM | NCI-H460 10 µM

CC1CNC(c2ccc3c(c2)Cc2cc(C4=NC(C)CN4)ccc2-3)=N1 (stereo not given)
inactive: KM12 20.3 µM | TK-10 > 100 µM | NCI-H226 55.7 µM | A498 > 100 µM | SK-MEL-5 71.8 µM | BT-549 > 100 µM | HCT-116 31.3 µM | NCI/ADR-RES > 100 µM | OVCAR-4 19.1 µM | LOX IMVI 47.2 µM | A549 > 100 µM | SNB-75 54.2 µM | MDA-MB-435 25.8 µM | CAKI-1 > 100 µM | IGROV-1 > 100 µM | NCI-H522 22.2 µM | SK-OV-3 37.9 µM | SW-620 56.1 µM | NCI-H460 26.6 µM

OCC1OC(N2CCN(C3OC(CO)C(O)C(O)C3O)CC2)C(O)C(O)C1O (stereo not given)
inactive: KM12 > 100 µM | TK-10 > 100 µM | NCI-H226 > 100 µM | A498 > 100 µM | SK-MEL-5 > 100 µM | BT-549 > 100 µM | HCT-116 > 100 µM | NCI/ADR-RES > 100 µM | OVCAR-4 > 100 µM | LOX IMVI > 100 µM | A549 > 100 µM | SNB-75 > 100 µM | MDA-MB-435 > 100 µM | CAKI-1 > 100 µM | IGROV-1 > 100 µM | NCI-H522 > 100 µM | SK-OV-3 > 100 µM | SW-620 > 100 µM | NCI-H460 > 100 µM

COc1cc2c3c4c1OCc1c5c(cc(c1-4)CC3[N+](C)(C)CC2)OCO5 (stereo not given)
inactive: KM12 > 100 µM | TK-10 > 100 µM | NCI-H226 32.3 µM | A498 > 100 µM | SK-MEL-5 > 100 µM | BT-549 2.83 µM | HCT-116 > 100 µM | NCI/ADR-RES > 80.5 µM | OVCAR-4 > 100 µM | LOX IMVI > 100 µM | A549 > 100 µM | SNB-75 26.7 µM | MDA-MB-435 > 100 µM | CAKI-1 > 100 µM | IGROV-1 > 100 µM | NCI-H522 27.1 µM | SK-OV-3 > 100 µM | SW-620 > 100 µM | NCI-H460 > 100 µM

C/C(=C/CC[C@]1(CO)CC[C@]2(C)[C@H](CC[C@@H]3[C@@]4(C)CC[C@H](OC5OC(CO)C(O)C(O)C5OC5OC(CO)C(O)C(O)C5O)C(C)(C)[C@@H]4CC[C@]32C)[C@H]1O)CO (stereo not given in full)
inactive: KM12 > 100 µM | TK-10 > 100 µM | NCI-H226 > 100 µM | A498 > 100 µM | SK-MEL-5 > 100 µM | BT-549 > 100 µM | HCT-116 > 100 µM | NCI/ADR-RES > 100 µM | OVCAR-4 > 100 µM | LOX IMVI > 100 µM | A549 > 100 µM | SNB-75 > 100 µM | MDA-MB-435 > 100 µM | CAKI-1 > 100 µM | IGROV-1 > 100 µM | NCI-H522 > 100 µM | SK-OV-3 > 100 µM | SW-620 > 100 µM | NCI-H460 > 100 µM

CN(CCCn1ccnc1[N+](=O)[O-])CCCn1ccnc1[N+](=O)[O-]
inactive: KM12 > 100 µM | TK-10 > 100 µM | NCI-H226 > 100 µM | A498 > 100 µM | SK-MEL-5 > 100 µM | BT-549 > 100 µM | HCT-116 > 100 µM | NCI/ADR-RES > 100 µM | OVCAR-4 > 100 µM | LOX IMVI > 100 µM | A549 > 100 µM | SNB-75 > 100 µM | MDA-MB-435 > 100 µM | CAKI-1 > 100 µM | IGROV-1 > 100 µM | NCI-H522 > 100 µM | SK-OV-3 > 100 µM | SW-620 > 100 µM | NCI-H460 > 100 µM

CC(=O)Oc1ccc2c(c1)c1c(=O)oc(C)nc1n2Cc1ccccc1
inactive: KM12 23.6 µM | TK-10 35.2 µM | NCI-H226 24.8 µM | A498 23.4 µM | SK-MEL-5 40 µM | BT-549 17.4 µM | HCT-116 40.5 µM | NCI/ADR-RES 31.3 µM | OVCAR-4 > 75.7 µM | LOX IMVI 32 µM | A549 67.5 µM | SNB-75 > 41.8 µM | MDA-MB-435 28.3 µM | CAKI-1 4.99 µM | IGROV-1 51.4 µM | NCI-H522 12 µM | SK-OV-3 28.7 µM | SW-620 57.9 µM | NCI-H460 > 65.2 µM

C=C1C(=O)O[C@H]2[C@@H]3O[C@@](C)(CC/C=C(\C)CCC[C@@H]2C)[C@H](O)C[C@@H]13
inactive: KM12 10.8 µM | TK-10 4.81 µM | NCI-H226 2.11 µM | A498 25.1 µM | SK-MEL-5 2.08 µM | BT-549 2.79 µM | HCT-116 3.66 µM | NCI/ADR-RES 2.04 µM | OVCAR-4 7.18 µM | LOX IMVI 2.86 µM | A549 6.79 µM | SNB-75 16.4 µM | MDA-MB-435 3.06 µM | CAKI-1 1.42 µM | IGROV-1 4.72 µM | NCI-H522 1.61 µM | SK-OV-3 17.6 µM | SW-620 7.96 µM | NCI-H460 2.99 µM

C[N+]1(CCN[N+]2(C)CCCCC2)CCc2ccccc2C1 (stereo not given)
inactive: KM12 > 100 µM | TK-10 > 100 µM | NCI-H226 60.4 µM | A498 > 100 µM | SK-MEL-5 > 100 µM | BT-549 > 100 µM | HCT-116 > 100 µM | NCI/ADR-RES > 100 µM | OVCAR-4 > 100 µM | LOX IMVI > 100 µM | A549 > 100 µM | SNB-75 > 100 µM | MDA-MB-435 > 100 µM | CAKI-1 > 100 µM | IGROV-1 > 100 µM | NCI-H522 > 100 µM | SK-OV-3 > 100 µM | SW-620 > 100 µM | NCI-H460 > 100 µM
